The text below walks through data of patent US12208088B2 (Genentech, Inc., priority 2018, dated 2025).

The target in the test is HPK1 (Homo sapiens (Human), UniProt Q92918). The test can be described thus: HPK1 Lantha binding assay ("Lanth"). The settings on record: binding assays; Morrison Ki fit. Summed up:
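Ki values are from Morrison-equation fitting of 665/615 nm TR-FRET signals, taking enzyme level, tracer level and tracer Kd into account. The assay mix held HPK1 (2 nM), Eu-anti-GST antibody (2 nM) and Tracer222 (15 nM). Incubations were two 1 h steps at 23 °C, on 5-fold serial compound dilutions.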

Sequence of HPK1 (Q92918 1-346 limits assumed): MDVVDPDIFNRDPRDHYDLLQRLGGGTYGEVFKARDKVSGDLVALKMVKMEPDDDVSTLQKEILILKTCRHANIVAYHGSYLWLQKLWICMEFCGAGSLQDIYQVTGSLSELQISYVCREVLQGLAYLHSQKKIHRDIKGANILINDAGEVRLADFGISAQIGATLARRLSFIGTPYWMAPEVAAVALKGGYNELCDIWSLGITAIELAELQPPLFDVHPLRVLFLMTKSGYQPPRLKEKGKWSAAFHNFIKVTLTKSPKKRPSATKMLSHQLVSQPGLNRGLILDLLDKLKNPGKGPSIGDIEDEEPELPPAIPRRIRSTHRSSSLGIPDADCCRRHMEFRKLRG

As for `CC1(O)C(=O)Nc2ccc(-c3cnc4c(c3)C3(CC3)CN4)cc21` (centres unmarked) [Compound 20, 5-(1′,2′-dihydrospiro[cyclopropane-1,3′-pyrrolo[2,3-b]pyridin]-5′-yl)-3-hydroxy-3-methylindolin-2-one], the Ki was determined as 0.212 µM. The value for `CN(C)S(=O)(=O)c1cccc(-c2cnc3c(c2)C2(CC2)CN3)c1F` [Compound 21, 3-(1′,2′-dihydrospiro[cyclopropane-1,3′-pyrrolo[2,3-b]pyridin]-5′-yl)-2-fluoro-N,N-dimethylbenzenesulfonamide] was 0.297 µM; that for `CNS(=O)(=O)c1cccc(-c2cnc3c(c2)C2(CC2)CN3)c1F` [Compound 22, 3-(1′,2′-dihydrospiro[cyclopropane-1,3′-pyrrolo[2,3-b]pyridin]-5′-yl)-2-fluoro-N-methylbenzenesulfonamide] was 0.869 µM; that for `O=C1Nc2ccc(-c3cnc4c(c3)C3(CC3)CN4)cc2C1(O)C1CC1` (centres unmarked) [Compound 23, 3-cyclopropyl-5-(1′,2′-dihydrospiro[cyclopropane-1,3′-pyrrolo[2,3-b]pyridin]-5′-yl)-3-hydroxyindolin-2-one] was 0.184 µM.

`CN(C)C(=O)c1c(N)ccc(-c2cnc3c(c2)C2(CN3)CC2(C)C)c1F` (centres unmarked) [Compound 24, 6-Amino-3-(2,2-dimethyl-1′,2′-dihydrospiro[cyclopropane-1,3′-pyrrolo[2,3-b]pyridin]-5′-yl)-2-fluoro-N,N-dimethylbenzamide] showed a Ki of 0.0887 µM. `CN(C)C(=O)c1c(N)ccc(-c2cnc3c(c2)C2(CN3)C3COCC32)c1F` (centres unmarked) [Compound 26, 6-amino-3-(1′,2′-dihydro-3-oxaspiro[bicyclo[3.1.0]hexane-6,3′-pyrrolo[2,3-b]pyridin]-5′-yl)-2-fluoro-N,N-dimethylbenzamide]: the Ki turned out to be 0.446 µM. Under `CN(C)C(=O)c1c(N)ccc(-c2cnc3c(c2Cl)C2(CCCC2)CN3)c1F` [Compound 27, 6-Amino-3-(4′-chloro-1′,2′-dihydrospiro[cyclopentane-1,3′-pyrrolo[2,3-b]pyridin]-5′-yl)-2-fluoro-N,N-dimethylbenzamide] stands 0.00671 µM. With `CN(C)C(=O)c1c(N)ccc(-c2cnc3c(c2Cl)C2(CC=CC2)CN3)c1F` [Compound 28, 6-Amino-3-(4′-chloro-1′,2′-dihydrospiro[cyclopentane-1,3′-pyrrolo[2,3-b]pyridin]-3-en-5′-yl)-2-fluoro-N,N-dimethylbenzamide], the inhibition constant (Ki) worked out at 0.00695 µM.

Consider `CN(CC(C)(C)O)C(=O)c1c(N)ccc(-c2cnc3c(c2)C2(CC2)CN3)c1F` [Compound 29, 6-amino-3-(1′,2′-dihydrospiro[cyclopropane-1,3′-pyrrolo[2,3-b]pyridin]-5′-yl)-2-fluoro-N-(2-hydroxy-2-methylpropyl)-N-methylbenzamide], for which the Ki amounted to 0.03 µM. In the case of `Cc1c(-c2ccc(N)c(C(=O)N(C)C)c2F)cnc2c1C1(CC1)CN2` [Compound 30, 6-Amino-2-fluoro-N,N-dimethyl-3-(4′-methyl-1′,2′-dihydrospiro[cyclopropane-1,3′-pyrrolo[2,3-b]pyridin]-5′-yl)benzamide], the affinity, expressed as Ki, was 0.0539 µM. Under `COc1c(-c2ccc(N)c(C(=O)N(C)C)c2F)cnc2c1C1(CC1)CN2` [Compound 31, 6-Amino-2-fluoro-3-(4′-methoxy-1′,2′-dihydrospiro[cyclopropane-1,3′-pyrrolo[2,3-b]pyridin]-5′-yl)-N,N-dimethylbenzamide] stands 0.0286 µM.

Turning to `Nc1ccc(-c2cnc3c(c2Cl)C2(CC2)CN3)cc1C(=O)N1C2CCC1CC2` [Compound 32, (2-Amino-5-(4′-chloro-1′,2′-dihydrospiro[cyclopropane-1,3′-pyrrolo[2,3-b]pyridin]-5′-yl)phenyl)(7-azabicyclo[2.2.1]heptan-7-yl)methanone], the Ki is 0.0128 µM. Under `Nc1cc(-c2cnc3c(c2Cl)C2(CC2)CN3)cc(-c2ncccc2CO)c1` [Compound 34, (2-(3-Amino-5-(4′-chloro-1′,2′-dihydrospiro[cyclopropane-1,3′-pyrrolo[2,3-b]pyridin]-5′-yl)phenyl)pyridin-3-yl)methanol] stands 0.00615 µM.

`CN(CCO)C(=O)c1c(N)ccc(-c2cnc3c(c2Cl)C2(CC2)CN3)c1F` [Compound 36, 6-Amino-3-(4′-chloro-1′,2′-dihydrospiro[cyclopropane-1,3′-pyrrolo[2,3-b]pyridin]-5′-yl)-2-fluoro-N-(2-hydroxyethyl)-N-methylbenzamide] displayed a Ki of 0.0047 µM.

Turning to `CN(C)C(=O)c1c(N)ccc(-c2cnc3c(c2Cl)C2(CCC2)CN3)c1F` [Compound 37, 6-Amino-3-(4′-chloro-1′,2′-dihydrospiro[cyclobutane-1,3′-pyrrolo[2,3-b]pyridin]-5′-yl)-2-fluoro-N,N-dimethylbenzamide], the Ki is 0.0022 µM. Under `CN(C)C(=O)c1c(N)ccc(-c2cnc3c(c2Cl)[C@]2(CC[C@@H](O)C2)CN3)c1F` [Compound 38a] stands 0.0242 µM. Molecule `CN(C)C(=O)c1c(N)ccc(-c2cnc3c(c2Cl)[C@]2(CC[C@H](O)C2)CN3)c1F` [Compound 38c, 6-Amino-3-((1R,3S)-4′-chloro-3-hydoxy-1′,2′-dihydrospiro[cyclopentane-1,3′-pyrrolo[2,3-b]pyridin]5′-yl)-2-fluoro-N,N-dimethylbenzamide] returned a Ki of 0.00847 µM. The value for `CN(C)C(=O)c1c(N)ccc(-c2cnc3c(c2Cl)C2(CN3)CC2CO)c1F` (centres unmarked) [Compound 39, 6-Amino-3-(4′-chloro-2-(hydroxymethyl)-1′,2′-dihydrospiro[cyclopropane-1,3′-pyrrolo[2,3-b]pyridin]-5′-yl)-2-fluoro-N,N-dimethylbenzamide] was 0.0172 µM. `CN(C)C(=O)c1c(N)ccc(-c2cnc3c(c2Cl)[C@@]2(CN3)C[C@H]2CO)c1F` [Compound 39a, 6-Amino-3-((1R,2R)-4′-chloro-2-(hydroxymethyl)-1′,2′-dihydrospiro[cyclopropane-1,3′-pyrrolo[2,3-b]pyridin]-5′-yl)-2-fluoro-N,N-dimethylbenzamide] showed a Ki of 0.0277 µM. Regarding `CN(C)C(=O)c1c(N)ccc(-c2cnc3c(c2Cl)[C@]2(CN3)C[C@@H]2CO)c1F` [Compound 39b, 6-Amino-3-((1S,2S)-4′-chloro-2-(hydroxymethyl)-1′,2′-dihydrospiro[cyclopropane-1,3′-pyrrolo[2,3-b]pyridin]-5′-yl)-2-fluoro-N,N-dimethylbenzamide], the affinity corresponds to a Ki of 0.0405 µM.

Molecule `CN(C)C(=O)c1c(N)ccc(-c2cnc3c(c2Cl)C2(CN3)Cc3ccncc3C2)c1F` (centres unmarked) [Compound 40, 6-Amino-3-(4′-chloro-1′,2′,5,7-tetrahydrospiro[cyclopenta[c]pyridine-6,3′-pyrrolo[2,3-b]pyridin]-5′-yl)-2-fluoro-N,N-dimethylbenzamide] had a Ki of 0.0153 µM. The value for `O=C1CNCCN1c1cccc(-c2cnc3c(c2)C2(CC2)CN3)c1` [Compound 42, 1-(3-(1′,2′-Dihydrospiro[cyclopropane-1,3′-pyrrolo[2,3-b]pyridin]-5′-yl)phenyl)piperazin-2-one] was 0.1 µM; that for `OCc1cccnc1-c1cccc(-c2cnc3c(c2)C2(CC2)CN3)c1` [Compound 43, (2-(3-(1′,2′-Dihydrospiro[cyclopropane-1,3′-pyrrolo[2,3-b]pyridin]-5′-yl)phenyl)pyridin-3-yl)methanol] was 0.0815 µM; that for `CN(CCO)C(=O)c1c(N)ccc(-c2cnc3c(c2Cl)C2(CCC2)CN3)c1F` [Compound 44, 6-Amino-3-(4′-chloro-1′,2′-dihydrospiro[cyclobutane-1,3′-pyrrolo[2,3-b]pyridin]-5′-yl)-2-fluoro-N-(2-hydroxyethyl)-N-methylbenzamide] was 0.0044 µM.

In the case of `CN(CCO)C(=O)c1cccc(-c2cnc3c(c2Cl)C2(CC2)CN3)c1F` [Compound 45, 3-(4′-Chloro-1′,2′-dihydrospiro[cyclopropane-1,3′-pyrrolo[2,3-b]pyridin]-5′-yl)-2-fluoro-N-(2-hydroxyethyl)-N-methylbenzamide], the affinity corresponds to a Ki of 0.0437 µM. The value for `CCN(CCO)C(=O)c1cccc(-c2cnc3c(c2Cl)C2(CC2)CN3)c1F` [Compound 46, 3-(4′-Chloro-1′,2′-dihydrospiro[cyclopropane-1,3′-pyrrolo[2,3-b]pyridin]-5′-yl)-N-ethyl-2-fluoro-N-(2-hydroxyethyl)benzamide] was 0.0386 µM; that for `O=C(c1cccc(-c2cnc3c(c2Cl)C2(CC2)CN3)c1F)N(CCO)CCO` [Compound 47, 3-(4′-Chloro-1′,2′-dihydrospiro[cyclopropane-1,3′-pyrrolo[2,3-b]pyridin]-5′-yl)-2-fluoro-N,N-bis(2-hydroxyethyl)benzamide] was 0.0885 µM; that for `O=C(c1cccc(-c2cnc3c(c2Cl)C2(CC2)CN3)c1F)N1CCNCC1` [Compound 48, (3-(4′-Chloro-1′,2′-dihydrospiro[cyclopropane-1,3′-pyrrolo[2,3-b]pyridin]-5′-yl)-2-fluorophenyl)(piperazin-1-yl)methanone] was 0.151 µM. Under `O=C(c1cccc(-c2cnc3c(c2Cl)C2(CC2)CN3)c1F)N1CC(O)C1` [Compound 49] stands 0.0553 µM; under `CC(=O)NC1CN(C(=O)c2cccc(-c3cnc4c(c3Cl)C3(CC3)CN4)c2F)C1` [Compound 50, N-(1-(3-(4′-Chloro-1′,2′-dihydrospiro[cyclopropane-1,3′-pyrrolo[2,3-b]pyridin]-5′-yl)-2-fluorobenzoyl)azetidin-3-yl)acetamide], 0.139 µM. The value for `NC1CN(C(=O)c2cccc(-c3cnc4c(c3Cl)C3(CC3)CN4)c2F)C1` [Compound 51, (3-Aminoazetidin-1-yl)(3-(4′-chloro-1′,2′-dihydrospiro[cyclopropane-1,3′-pyrrolo[2,3-b]pyridin]-5′-yl)-2-fluorophenyl)methanone] was 0.0682 µM; that for `COc1c(-c2ccc(N)c(C(=O)N(C)CCO)c2F)cnc2c1C1(CCC1)CN2` [Compound 52, 6-Amino-2-fluoro-N-(2-hydroxyethyl)-3-(4′-methoxy-1′,2′-dihydrospiro[cyclobutane-1,3′-pyrrolo[2,3-b]pyridin]-5′-yl)-N-methylbenzamide] was 0.019 µM.

In general, Ki refers to the dissociation constant of the complex between target and ligand, obtained from inhibition or displacement.
